Experiments:
Type in all cases: in vivo
Thrips tabaci = Thrips tabaci (onion thrips): feeding/contact activity; settings: 144 h, application rate 200 ppm, Thrips population of mixed ages, 6 days after infestation, read-out: mortality
Method: (§1) Sunflower leaf discs were placed on agar in 24-well microtiter plates and sprayed with aqueous test solutions prepared from 10'000 ppm DMSO stock solutions. After drying the leaf discs were infested with a Thrips population of mixed ages. The samples were assessed for mortality 6 days after infestation.

Spodoptera littoralis [1] = experiment: Spodoptera littoralis (Egyptian cotton leaf worm), sprayed cotton leaf discs; settings: foliar, 72 h, application rate 200 ppm, L1 larvae, 3 days after infestation, read-out: control (mortality, anti-feeding effect, growth inhibition)
Outline: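 Cotton leaf discs on agar sprayed with aqueous test solutions made from 10'000 ppm DMSO stock; after drying, infested with five L1 larvae. Mortality, anti-feeding and growth inhibition scored versus untreated samples 3 days after infestation; control counted when any category exceeds untreated.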

Spodoptera littoralis [2] = experiment: Spodoptera littoralis (Egyptian cotton leaf worm), uptake by lettuce roots from agar; settings: 144 h, read-out: effect in at least one of the three categories (mortality, anti-feeding, or growth inhibition); for percent effect (mortality, anti-feeding or growth inhibition) at 12.5 ppm: test rate 12.5 ppm, eggs, 6 days after infestation
From the text: Test compounds were applied by pipette from 10'000 ppm DMSO stock solutions into 24-well plates and mixed with agar. Lettuce seeds were placed onto the agar and the multi well plate was closed by another plate which contained also agar. After 7 days the compound was absorbed by the roots and the lettuce grew into the lid plate. The lettuce leaves were then cut off into the lid plate. Spodoptera eggs were pipetted through a plastic stencil onto a humid gel blotting paper and the lid plate was closed with it. The samples were assessed for mortality, anti-feedant effect and growth inhibition in comparison to untreated samples 6 days after infestation.
The following compounds gave an effect of at least 80% in at least one of the three categories (mortality, anti-feeding, or growth inhibition) at a test rate of 12.5 ppm: […]

Myzus persicae = Myzus persicae (green peach aphid): feeding/contact activity; settings: 144 h, application rate 200 ppm, aphid population of mixed ages, 6 days after infestation, read-out: mortality
Method: Sunflower leaf discs were placed onto agar in a 24-well microtiter plate and sprayed with aqueous test solutions prepared from 10'000 ppm DMSO stock solutions. After drying, the leaf discs were infested with an aphid population of mixed ages. The samples were assessed for mortality 6 days after infestation.

Plutella xylostella = Plutella xylostella (diamond back moth), artificial diet; settings: 120 h, application rate 200 ppm, L2 larvae, 5 days after infestation, read-out: effect in at least one of the two categories (mortality or growth inhibition)
Outline: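 Artificial diet in 24-well plates treated with aqueous test solutions made from 10'000 ppm DMSO stocks, dried, then infested with L2 larvae (10 to 15 per well). Mortality and growth inhibition scored against untreated samples 5 days after infestation; activity cut-off at least 80% in either category at 200 ppm.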

Diabrotica balteata = Diabrotica balteata (corn root worm), sprayed maize sprouts; settings: 96 h, application rate 200 ppm, L2 larvae, 4 days after infestation, read-out: effect in at least one of the two categories (mortality or growth inhibition)
Outline: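 Maize sprouts on agar sprayed with aqueous dilutions of DMSO stocks, dried, then infested with L2 larvae (6–10 per well). Mortality and growth inhibition scored against untreated controls 4 days after infestation, at 200 ppm application rate.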

Tetranychus urticae = Tetranychus urticae (two-spotted spider mite): feeding/contact activity; settings: 192 h, application rate 200 ppm, mixed population (mobile stages), 8 days after infestation, read-out: mortality
Method: as §1, with “Bean” for “Sunflower”, “discs” for “discs were placed”, “were” for “and”, “mite” for “Thrips”, “on mixed population (mobile stages) 8” for “6”

Euschistus heros = Euschistus heros (neotropical brown stink bug), sprayed soybean leaves; settings: 120 h, application rate 200 ppm, N2 nymphs, 5 days after infestation, read-out: effect in at least one of the two categories (mortality or growth inhibition)
Outline: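 Soybean leaves on agar sprayed with aqueous dilutions of DMSO stocks, dried, then infested with N2 nymphs. Mortality and growth inhibition scored against untreated samples 5 days after infestation; application rate 200 ppm.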

Cc1cc(C2=NO[C@@](c3cc(Br)cc(C(F)(F)F)c3)(C(F)(F)F)C2)ccc1C(=O)NC1CON(S(C)(=O)=O)C1 (stereo partly drawn) [Compound A16]
≥ 80%: mortality at 200 ppm (Thrips tabaci) | mortality at 200 ppm (Spodoptera littoralis [1]) | percent effect (mortality, anti-feeding or growth inhibition) at 12.5 ppm (Spodoptera littoralis [2]) | mortality at 200 ppm (Myzus persicae) | percent effect (mortality or growth inhibition) at 200 ppm (Plutella xylostella) | percent effect (mortality or growth inhibition) at 200 ppm (Diabrotica balteata) | mortality at 200 ppm (Tetranychus urticae)

Cc1cc(C2=NO[C@@](c3cc(Cl)c(F)c(Cl)c3)(C(F)(F)F)C2)ccc1C(=O)NC1CON(S(C)(=O)=O)C1 (stereo partly drawn) [Compound A1, 4-[(5S)-5-(3,5-dichloro-4-fluoro-phenyl)-5-(trifluoromethyl)-4H-isoxazol-3-yl]-2-methyl-N-(2-methylsulfonylisoxazolidin-4-yl)benzamide]
≥ 80%: mortality at 200 ppm (Thrips tabaci) | mortality at 200 ppm (Spodoptera littoralis [1]) | percent control (mortality, anti-feedant effect or growth inhibition) at 12.5 ppm (Spodoptera littoralis [2]) | mortality at 200 ppm (Myzus persicae) | percent effect (mortality or growth inhibition) at 200 ppm (Plutella xylostella) | percent effect (mortality or growth inhibition) at 200 ppm (Diabrotica balteata) | mortality at 200 ppm (Tetranychus urticae)

CS(=O)(=O)N1CC(NC(=O)c2ccc(C3=NOC(c4cc(Cl)cc(Cl)c4)(C(F)(F)F)C3)cc2Br)CO1 (stereo not drawn) [Compound A48]
≥ 80%: mortality at 200 ppm (Thrips tabaci) | percent effect (mortality or growth inhibition) at 200 ppm (Euschistus heros) | mortality at 200 ppm (Spodoptera littoralis [1]) | percent control (mortality, anti-feedant effect or growth inhibition) at 12.5 ppm (Spodoptera littoralis [2]) | percent effect (mortality or growth inhibition) at 200 ppm (Plutella xylostella) | percent effect (mortality or growth inhibition) at 200 ppm (Diabrotica balteata) | mortality at 200 ppm (Tetranychus urticae)

CN(C)S(=O)(=O)N1CC(NC(=O)c2ccc(C3=NO[C@@](c4cc(Cl)c(F)c(Cl)c4)(C(F)(F)F)C3)cc2Cl)CO1 (stereo partly drawn) [Compound A21]
≥ 80%: mortality at 200 ppm (Thrips tabaci) | mortality at 200 ppm (Spodoptera littoralis [1]) | percent control (mortality, anti-feedant effect or growth inhibition) at 12.5 ppm (Spodoptera littoralis [2]) | mortality at 200 ppm (Myzus persicae) | percent effect (mortality or growth inhibition) at 200 ppm (Plutella xylostella) | percent effect (mortality or growth inhibition) at 200 ppm (Diabrotica balteata) | mortality at 200 ppm (Tetranychus urticae)

Cc1cc(C2=NOC(c3cc(Cl)cc(Cl)c3)(C(F)(F)F)C2)ncc1C(=O)NC1CON(S(C)(=O)=O)C1 (stereo not drawn) [Compound A236]
≥ 80%: mortality at 200 ppm (Thrips tabaci) | percent effect (mortality or growth inhibition) at 200 ppm (Euschistus heros) | mortality at 200 ppm (Spodoptera littoralis [1]) | percent control (mortality, anti-feedant effect or growth inhibition) at 12.5 ppm (Spodoptera littoralis [2]) | percent effect (mortality or growth inhibition) at 200 ppm (Plutella xylostella) | percent effect (mortality or growth inhibition) at 200 ppm (Diabrotica balteata) | mortality at 200 ppm (Tetranychus urticae)

CCS(=O)(=O)N1CC(NC(=O)c2ccc(C3=NO[C@@](c4cc(Cl)c(Cl)c(Cl)c4)(C(F)(F)F)C3)cc2Cl)CO1 (stereo partly drawn) [Compound A28, 2-chloro-N-(2-ethylsulfonylisoxazolidin-4-yl)-4-[(5S)-5-(3,4,5-trichlorophenyl)-5-(trifluoromethyl)-4H-isoxazol-3-yl]benzamide]
≥ 80%: mortality at 200 ppm (Thrips tabaci) | mortality at 200 ppm (Spodoptera littoralis [1]) | percent control (mortality, anti-feedant effect or growth inhibition) at 12.5 ppm (Spodoptera littoralis [2]) | mortality at 200 ppm (Myzus persicae) | percent effect (mortality or growth inhibition) at 200 ppm (Plutella xylostella) | percent effect (mortality or growth inhibition) at 200 ppm (Diabrotica balteata) | mortality at 200 ppm (Tetranychus urticae)

CCS(=O)(=O)N1CC(NC(=O)c2ccc(C3=NO[C@@](c4cc(Cl)c(F)c(Cl)c4)(C(F)(F)F)C3)cc2Cl)CO1 (stereo partly drawn) [Compound A25, 2-chloro-4-[(5S)-5-(3,5-dichloro-4-fluoro-phenyl)-5-(trifluoromethyl)-4H-isoxazol-3-yl]-N-(2-ethylsulfonylisoxazolidin-4-yl)benzamide]
≥ 80%: mortality at 200 ppm (Thrips tabaci) | mortality at 200 ppm (Spodoptera littoralis [1]) | percent control (mortality, anti-feedant effect or growth inhibition) at 12.5 ppm (Spodoptera littoralis [2]) | mortality at 200 ppm (Myzus persicae) | percent effect (mortality or growth inhibition) at 200 ppm (Plutella xylostella) | percent effect (mortality or growth inhibition) at 200 ppm (Diabrotica balteata) | mortality at 200 ppm (Tetranychus urticae)

Cc1cc(C2=NOC(c3cc(C(F)(F)F)c(Cl)c(C(F)(F)F)c3)(C(F)(F)F)C2)ccc1C(=O)NC1CON(S(C)(=O)=O)C1 (stereo not drawn) [Compound A57]
≥ 80%: mortality at 200 ppm (Thrips tabaci) | percent effect (mortality or growth inhibition) at 200 ppm (Euschistus heros) | mortality at 200 ppm (Spodoptera littoralis [1]) | percent control (mortality, anti-feedant effect or growth inhibition) at 12.5 ppm (Spodoptera littoralis [2]) | percent effect (mortality or growth inhibition) at 200 ppm (Plutella xylostella) | percent effect (mortality or growth inhibition) at 200 ppm (Diabrotica balteata) | mortality at 200 ppm (Tetranychus urticae)

CS(=O)(=O)N1CC(NC(=O)c2ccc(C3=NOC(c4cc(Cl)cc(Cl)c4)(C(F)(F)F)C3)cc2C2CC2)CO1 (stereo not drawn) [Compound A52]
≥ 80%: mortality at 200 ppm (Thrips tabaci) | percent effect (mortality or growth inhibition) at 200 ppm (Euschistus heros) | mortality at 200 ppm (Spodoptera littoralis [1]) | percent control (mortality, anti-feedant effect or growth inhibition) at 12.5 ppm (Spodoptera littoralis [2]) | percent effect (mortality or growth inhibition) at 200 ppm (Plutella xylostella) | percent effect (mortality or growth inhibition) at 200 ppm (Diabrotica balteata) | mortality at 200 ppm (Tetranychus urticae)

Cc1cc(C2=NO[C@@](c3cc(Cl)c(F)c(Cl)c3)(C(F)(F)F)C2)ccc1C(=O)NC1CON(S(=O)(=O)CC(F)(F)F)C1 (stereo partly drawn) [Compound A8]
≥ 80%: mortality at 200 ppm (Thrips tabaci) | percent effect (mortality or growth inhibition) at 200 ppm (Euschistus heros) | mortality at 200 ppm (Spodoptera littoralis [1]) | percent control (mortality, anti-feedant effect or growth inhibition) at 12.5 ppm (Spodoptera littoralis [2]) | percent effect (mortality or growth inhibition) at 200 ppm (Plutella xylostella) | percent effect (mortality or growth inhibition) at 200 ppm (Diabrotica balteata) | mortality at 200 ppm (Tetranychus urticae)

Cc1cc(C2=NO[C@@](c3cc(Br)cc(C(F)(F)F)c3)(C(F)(F)F)C2)ccc1C(=O)NC1CON(S(=O)(=O)N(C)C)C1 (stereo partly drawn) [Compound A23]
≥ 80%: mortality at 200 ppm (Thrips tabaci) | mortality at 200 ppm (Spodoptera littoralis [1]) | percent effect (mortality, anti-feeding or growth inhibition) at 12.5 ppm (Spodoptera littoralis [2]) | mortality at 200 ppm (Myzus persicae) | percent effect (mortality or growth inhibition) at 200 ppm (Plutella xylostella) | percent effect (mortality or growth inhibition) at 200 ppm (Diabrotica balteata) | mortality at 200 ppm (Tetranychus urticae)

CCS(=O)(=O)N1C[C@@H](NC(=O)c2ccc(C3=NO[C@@](c4cccc(C(F)(F)F)c4)(C(F)(F)F)C3)cc2C)CO1 [Compound A160]
≥ 80%: mortality at 200 ppm (Thrips tabaci) | percent effect (mortality or growth inhibition) at 200 ppm (Euschistus heros) | mortality at 200 ppm (Spodoptera littoralis [1]) | percent effect (mortality, anti-feeding or growth inhibition) at 12.5 ppm (Spodoptera littoralis [2]) | percent effect (mortality or growth inhibition) at 200 ppm (Plutella xylostella) | percent effect (mortality or growth inhibition) at 200 ppm (Diabrotica balteata) | mortality at 200 ppm (Tetranychus urticae)

Cc1cc(C2=NO[C@@](c3cc(Cl)c(F)c(Cl)c3)(C(F)(F)F)C2)ccc1C(=O)NC1CON(S(=O)(=O)N2CCCC2)C1 (stereo partly drawn) [Compound A99, 4-[(5S)-5-(3,5-dichloro-4-fluoro-phenyl)-5-(trifluoromethyl)-4H-isoxazol-3-yl]-2-methyl-N-(2-pyrrolidin-1-ylsulfonylisoxazolidin-4-yl)benzamide]
≥ 80%: mortality at 200 ppm (Thrips tabaci) | percent effect (mortality or growth inhibition) at 200 ppm (Euschistus heros) | mortality at 200 ppm (Spodoptera littoralis [1]) | mortality at 200 ppm (Myzus persicae) | percent effect (mortality or growth inhibition) at 200 ppm (Plutella xylostella) | percent effect (mortality or growth inhibition) at 200 ppm (Diabrotica balteata) | mortality at 200 ppm (Tetranychus urticae)

COCN(C)S(=O)(=O)N1CC(NC(=O)c2ccc(C3=NO[C@@](c4cc(Cl)c(Cl)c(Cl)c4)(C(F)(F)F)C3)cc2C)CO1 (stereo partly drawn) [Compound A96]
≥ 80%: mortality at 200 ppm (Thrips tabaci) | percent effect (mortality or growth inhibition) at 200 ppm (Euschistus heros) | mortality at 200 ppm (Spodoptera littoralis [1]) | mortality at 200 ppm (Myzus persicae) | percent effect (mortality or growth inhibition) at 200 ppm (Plutella xylostella) | percent effect (mortality or growth inhibition) at 200 ppm (Diabrotica balteata) | mortality at 200 ppm (Tetranychus urticae)

CC(=O)N(C)S(=O)(=O)N1CC(NC(=O)c2ccc(C3=NO[C@@](c4cc(Cl)c(F)c(Cl)c4)(C(F)(F)F)C3)cc2C)CO1 (stereo partly drawn) [Compound A162]
≥ 80%: mortality at 200 ppm (Thrips tabaci) | percent effect (mortality or growth inhibition) at 200 ppm (Euschistus heros) | mortality at 200 ppm (Spodoptera littoralis [1]) | mortality at 200 ppm (Myzus persicae) | percent effect (mortality or growth inhibition) at 200 ppm (Plutella xylostella) | percent effect (mortality or growth inhibition) at 200 ppm (Diabrotica balteata) | mortality at 200 ppm (Tetranychus urticae)

From patent US10588317B2, “Isoxazoline-substituted benzamides and analogues as insecticides” (priority 2015, dated 2020)
